# According to article PMC8979682, “Synthesis, Antioxidant, and Antidiabetic Activities of Ketone Derivatives of Succinimide” (Evidence-based Complementary and Alternative Medicine : eCAM, 2022):
# What was measured:
# α-glucosidase = assay: in vitro α-glucosidase inhibition; assay type: biochemical
# Protocol: For in vitro α-glucosidase activity, samples were prepared by adding glucopyranoside to phosphate buffer solvent, and different concentrations of the synthesized compounds (31.25, 62.5, 125, 250, and 500 µg/ml), respectively, were added to this solution and then the enzyme glucosidase in distilled water (0.5 µg/ml) was also added to the above mixture. The reaction mixture thus prepared was subjected to incubation at 37°C for 20 minutes. The reaction was halted by adding HCl after incubation of the mixture. The intensity of the color was determined at 540 nm by spectrophotometer, and the formula given below was used for the determination of percent inhibition:(2) percent inhibition=absorbancecontrol−absorbancesample/absorbancecontrol×100.
# α-amylase = assay: in vitro α-amylase inhibition; assay type: biochemical
# Protocol: The starch solution was added, following incubation of the mixture, and the reaction mixture thus prepared was kept in water bath at 100°C for some time. Microplate reader measured the intensity of the color at 656 nm. Following formula was used to determine percentage inhibition:(3) percent inhibition=absorbancecontrol−absorbancesample/absorbancecontrol×100.
# ABTS scavenging activity = assay type: biochemical
# Protocol: For the determination of the antioxidant activity of the synthesized compounds, the previously reported method for ABTS scavenging activity was used with slight modification. The stock solution of 2.4 mM of potassium per sulfate solution and 7 mM ABTS solution was prepared by mixing them in equal volumes for 16 h. The stock solution thus prepared was diluted using methyl alcohol to give absorption of 0.7 ± 0.02 units when studied at the wavelength of 734 nm using a spectrophotometer. Fresh ABTS solution was prepared for each ABTS scavenging assay. About 150 μL of the ABTS working solution was added to 50 μL of synthesized compounds and kept in darkness for 10 min. […] Methanol was used as blank, and standard ascorbic acid was run at the same time. The absorbance was calculated utilizing a microplate reader at 734 nm.
# DPPH scavenging activity = assay type: biochemical
# Protocol: The antioxidant assay of the synthesized compounds was conducted following the previously reported method. A freshly prepared DPPH solution (50 μL of 1.0 × 10^−3 M) was added in methyl alcohol. Methanol was used as a control in this experiment. The prepared mixture was subjected to incubation at 25°C for 30 min. A decrease in the DPPH free radical concentration was calculated using a spectrophotometer at a wavelength of 517 nm. After incubation ascorbic acid was used as a positive control. The antioxidant activity was determined as a percent (%) of inhibition using the formula given:(1) percent inhibition=absorbancecontrol−absorbancesample/absorbancecontrol×100.
# [1] = test system: diabetic mice (by alloxan); assay: antidiabetic activity in diabetic mice (by alloxan); assay type: in vivo
# Protocol: Alloxan was used for the induction of diabetes mellitus according to reported procedure. Recently prepared Alloxan (ALX) was injected intraperitoneally to animals, fasting for 16 h, at a single dose of (150 mg/kg). […] Only diabetic animals, having random blood glucose level more than 200 mg/dl, were selected for studies. All the experimental procedure were approved from the ethical committee department of pharmacy, University of Swabi via letter No; UOS-06/2021.
# A total of 30 animals were used to determine the hypoglycemic effect of the synthesized derivatives of succinimide. The experimental animals were segregated in six groups […], having five (5) animals in each group. Group I was designated as normal group and was given normal saline I/P only. Group II was given Tween 80, and Group III was given standard drug (glibenclamide) after the induction of diabetes. Group IV, Group V, and Group VI were given the various doses of synthesized compounds, respectively. […]
# mice = assay: oral glucose tolerance test (OGTT); assay type: in vivo; details: glucose 2 g/kg orally
# Protocol: To perform OGTT mice fasted overnight were used including both control and treated mice. Glucose was administered orally at the dose of 2 g/kg against glibenclamide as standard drug. After administration of glucose, blood glucose level was calculated at time intervals of 0, 30, 60, and 120 min for assessment of the impact of exogenously given D-glucose on treated mice. OGTT was carried out 5 days before the completion of the study.
# To perform OGTT, mice fasted overnight were used including both control and treated mice. Glucose was administered orally at the dose of 2 g/kg against glibenclamide as a standard drug. After administration of glucose, blood glucose level was calculated at time intervals of 0, 30, 60, and 120 min for assessment of the impact of exogenously given D-glucose on treated mice.
structure (smiles),measurement,setting,value
"C[C@H]1O[C@H](O[C@H]2[C@H](O)[C@@H](O)[C@@H](O[C@H]3[C@H](O)[C@@H](O)C(O)O[C@@H]3CO)O[C@@H]2CO)[C@H](O)[C@@H](O)[C@@H]1N[C@H]1C=C(CO)[C@@H](O)[C@H](O)[C@H]1O (stereo partly drawn) [Acarbose, reference compound]",% inhibitions (α-glucosidase),α-glucosidase; 31.25 µg/ml,67.90 ± 0.45%
same,% inhibitions (α-glucosidase),α-glucosidase; 62.50 µg/ml,73.00 ± 0.30%
same,% inhibitions (α-glucosidase),α-glucosidase; 125 µg/ml,80.90 ± 0.60%
same,% inhibitions (α-glucosidase),α-glucosidase; 250 µg/ml,86.45 ± 0.90%
same,% inhibitions (α-glucosidase),α-glucosidase; 500 µg/ml,92.23 ± 0.22%
same,% inhibitions (α-amylase),α-amylase; 31.25 µg/ml,63.62 ± 0.58%
same,% inhibitions (α-amylase),α-amylase; 62.50 µg/ml,69.42 ± 1.55%
same,% inhibitions (α-amylase),α-amylase; 125 µg/ml,76.20 ± 0.49%
same,% inhibitions (α-amylase),α-amylase; 250 µg/ml,82.47 ± 0.71%
same,% inhibitions (α-amylase),α-amylase; 500 µg/ml,87.75 ± 0.42%
"O=C1O[C@H]([C@@H](O)CO)C(O)=C1O [Ascorbic acid, reference compound]",IC50 (ABTS),ABTS scavenging activity,6.84 µg/mL
same,(%) ABTS inhibitions,ABTS scavenging activity; 31.25 µg/ml,63.89 ± 0.20%
same,(%) ABTS inhibitions,ABTS scavenging activity; 62.50 µg/ml,75.45 ± 0.90%
same,(%) ABTS inhibitions,ABTS scavenging activity; 125 µg/ml,77.61 ± 0.43%
same,(%) ABTS inhibitions,ABTS scavenging activity; 250 µg/ml,82.40 ± 0.20%
same,(%) ABTS inhibitions,ABTS scavenging activity; 500 µg/ml,87.08 ± 0.47%
same,IC50 (DPPH),DPPH scavenging activity,7.10 µg/mL
same,(%) DPPH inhibitions,DPPH scavenging activity; 31.25 µg/ml,68.42 ± 0.43%
same,(%) DPPH inhibitions,DPPH scavenging activity; 62.50 µg/ml,73.22 ± 1.28%
same,(%) DPPH inhibitions,DPPH scavenging activity; 125 µg/ml,79.52 ± 0.66%
same,(%) DPPH inhibitions,DPPH scavenging activity; 250 µg/ml,84.56 ± 0.45%
same,(%) DPPH inhibitions,DPPH scavenging activity; 500 µg/ml,90.65 ± 1.32%
"O=C1CCCCC1C1CC(=O)N(c2ccccc2)C1=O (stereo not drawn) [BW1, (2-Oxocyclohexyl)-1-Phenylpyrrolidine-2,5-Dione]",IC50 (α-glucosidase),α-glucosidase,10.49 µg/mL
same,% inhibitions (α-glucosidase),α-glucosidase; 31.25 µg/ml,65.80 ± 0.90^ns %
same,% inhibitions (α-glucosidase),α-glucosidase; 62.50 µg/ml,70.40 ± 0.20^ns %
same,% inhibitions (α-glucosidase),α-glucosidase; 125 µg/ml,76.58 ± 0.63^ns %
same,% inhibitions (α-glucosidase),α-glucosidase; 250 µg/ml,83.45 ± 0.90^ns %
same,% inhibitions (α-glucosidase),α-glucosidase; 500 µg/ml,89.08 ± 1.04^ns %
same,IC50 (ABTS),ABTS scavenging activity,9.40 µg/mL
same,(%) ABTS inhibitions,ABTS scavenging activity; 31.25 µg/ml,55.67 ± 0.32^∗∗∗ %
same,(%) ABTS inhibitions,ABTS scavenging activity; 62.50 µg/ml,66.16 ± 0.16^∗∗∗ %
same,(%) ABTS inhibitions,ABTS scavenging activity; 125 µg/ml,70.62 ± 0.25^∗∗∗ %
same,(%) ABTS inhibitions,ABTS scavenging activity; 250 µg/ml,73.36 ± 0.84^∗∗∗ %
same,(%) ABTS inhibitions,ABTS scavenging activity; 500 µg/ml,78.35 ± 0.23^∗∗∗ %
same,Change in body weight,[1]; dose 31.25 μg/kg,+2.3 Gm
same,"Blood glucose level, 0 day",[1]; dose 31.25 μg/kg,418 mg/dL
same,"Blood glucose level, 4th day",[1]; dose 31.25 μg/kg,408 mg/dL
same,"Blood glucose level, 7th day",[1]; dose 31.25 μg/kg,399 mg/dL
same,"Blood glucose level, 10th day",[1]; dose 31.25 μg/kg,382 mg/dL
same,"Blood glucose level, 15th day",[1]; dose 31.25 μg/kg,375 mg/dL
same,Change in body weight,[1]; dose 62.5 μg/kg,+4.3 Gm
same,Decrease in blood glucose after 15 days,[1]; dose 62.5 μg/kg,34 mg/dL
same,"Blood glucose level, 0 day",[1]; dose 62.5 μg/kg,380 mg/dL
same,"Blood glucose level, 4th day",[1]; dose 62.5 μg/kg,371 mg/dL
same,"Blood glucose level, 7th day",[1]; dose 62.5 μg/kg,365 mg/dL
same,"Blood glucose level, 10th day",[1]; dose 62.5 μg/kg,351 mg/dL
same,"Blood glucose level, 15th day",[1]; dose 62.5 μg/kg,346 mg/dL
same,Change in body weight,[1]; dose 125 μg/kg,+4.1 Gm
same,Decrease in blood glucose after 15 days,[1]; dose 125 μg/kg,49 mg/dL
same,"Blood glucose level, 0 day",[1]; dose 125 μg/kg,443 mg/dL
same,"Blood glucose level, 4th day",[1]; dose 125 μg/kg,431 mg/dL
same,"Blood glucose level, 7th day",[1]; dose 125 μg/kg,413 mg/dL
same,"Blood glucose level, 10th day",[1]; dose 125 μg/kg,401 mg/dL
same,"Blood glucose level, 15th day",[1]; dose 125 μg/kg,394 mg/dL
same,Change in body weight,[1]; dose 250 μg/kg,+5.7 Gm
same,Decrease in blood glucose after 15 days,[1]; dose 250 μg/kg,207 mg/dL
same,"Blood glucose level, 0 day",[1]; dose 250 μg/kg,421 mg/dL
same,"Blood glucose level, 4th day",[1]; dose 250 μg/kg,397 mg/dL
same,"Blood glucose level, 7th day",[1]; dose 250 μg/kg,345 mg/dL
same,"Blood glucose level, 10th day",[1]; dose 250 μg/kg,219 mg/dL
same,"Blood glucose level, 15th day",[1]; dose 250 μg/kg,214 mg/dL
same,Change in body weight,[1]; dose 500 μg/kg,+7.1 Gm
same,Decrease in blood glucose after 15 days,[1]; dose 500 μg/kg,121 mg/dL
same,"Blood glucose level, 0 day",[1]; dose 500 μg/kg,412 mg/dL
same,"Blood glucose level, 4th day",[1]; dose 500 μg/kg,388 mg/dL
same,"Blood glucose level, 7th day",[1]; dose 500 μg/kg,372 mg/dL
same,"Blood glucose level, 10th day",[1]; dose 500 μg/kg,312 mg/dL
same,"Blood glucose level, 15th day",[1]; dose 500 μg/kg,291 mg/dL
same,IC50 (DPPH),DPPH scavenging activity,10.84 µg/mL
same,(%) DPPH inhibitions,DPPH scavenging activity; 31.25 µg/ml,62.03 ± 0.77^∗∗∗ %
same,(%) DPPH inhibitions,DPPH scavenging activity; 250 µg/ml,77.23 ± 0.96^∗∗∗ %
same,(%) DPPH inhibitions,DPPH scavenging activity; 500 µg/ml,85.83 ± 0.47^∗∗ %
same,IC50 (α-amylase),α-amylase,13.90 µg/mL
same,% inhibitions (α-amylase),α-amylase; 31.25 µg/ml,57.40 ± 0.40^∗∗∗ %
same,% inhibitions (α-amylase),α-amylase; 62.50 µg/ml,65.08 ± 0.66^∗∗∗ %
same,% inhibitions (α-amylase),α-amylase; 125 µg/ml,71.78 ± 0.44^∗∗∗ %
same,% inhibitions (α-amylase),α-amylase; 250 µg/ml,75.32 ± 0.40^∗∗∗ %
same,% inhibitions (α-amylase),α-amylase; 500 µg/ml,81.60 ± 0.00^∗∗∗ %
same,"OGTT blood glucose, 0 minutes",mice,165.8 mg/dL
same,"OGTT blood glucose, 30 minutes",mice,194.4 mg/dL
same,"OGTT blood glucose, 60 minutes",mice,211.8 mg/dL
same,"OGTT blood glucose, 120 minutes",mice,160.3 mg/dL
"COc1ccc(Cl)cc1C(=O)NCCc1ccc(S(=O)(=O)NC(=O)NC2CCCCC2)cc1 [Glibenclamide, reference compound]",Change in body weight,[1]; dose 0.5 (μg/kg),+10.3 Gm
same,Decrease in blood glucose after 15 days,[1]; dose 0.5 (μg/kg),275 mg/dL
same,"Blood glucose level, 0 day",[1]; dose 0.5 (μg/kg),473 mg/dL
same,"Blood glucose level, 4th day",[1]; dose 0.5 (μg/kg),303 mg/dL
same,"Blood glucose level, 7th day",[1]; dose 0.5 (μg/kg),257 mg/dL
same,"Blood glucose level, 10th day",[1]; dose 0.5 (μg/kg),212 mg/dL
same,"Blood glucose level, 15th day",[1]; dose 0.5 (μg/kg),198 mg/dL
same,"OGTT blood glucose, 0 minutes",mice,151.5 mg/dL
same,"OGTT blood glucose, 30 minutes",mice,176.7 mg/dL
same,"OGTT blood glucose, 60 minutes",mice,214.3 mg/dL
same,"OGTT blood glucose, 120 minutes",mice,140.5 mg/dL
